# Assay results: patent US20230398130A1, “METHODS AND COMPOSITIONS FOR DIFFERENTIATING STEM CELLS” (Massachusetts Institute of Technology, priority 2020, published 2023)
# Columns and labels:
# [1] = system: ISC-enriched organoids; experiment: Primary screen, 384-well 2.5-D organoid differentiation (ENR+CD, 6 days, Target Selective Inhibitor Library, vs whole-plate median): ATP (CellTiter-Glo 3D, CTG); conditions: for Dose.FC.CTG: primary screen, FC vs plate median; for Z.CTG: standard z score of FC
# [2] = system: ISC-enriched organoids; experiment: Primary screen, 384-well 2.5-D organoid differentiation (ENR+CD, 6 days): basal lysozyme secretion (LYZ.NS); assay type: cell-based, murine; conditions: for Dose.FC.LYZ.NS: primary screen, FC vs plate median; for Z.LYZ.NS: standard z score of FC
# Source text: (§1) High-throughput screening.
# [3] = system: ISC-enriched organoids; experiment: Secondary (validation) screen, 384-well 2.5-D, ENR+CD 6 days, n=8 wells, vs ENR+CD+DMSO control: basal lysozyme secretion (LYZ.NS); assay type: cell-based, murine; design: key to Dose.FC.LYZ.NS: log10 fold change vs median of vehicle control wells
# Procedure: (§2) Drugs were tested at a narrowed dose range around each treatment's identified optimal dose from the primary screen (4× below, 2× above and below).
# as §1
# (§3) Secondary lysozyme secretion assay screen. Confirmatory secondary screening with primary hits was performed using the above 384-well plate method. The screen was conducted with 4-plate replicates with a base media of ENR+CD. Media was supplemented with compound at day 0 and day 3 (n=8 well replicates per dose) at four different doses: two-fold above, two-fold below, and four-fold below the optimal final dose for each respective treatment. Additionally, each plate carried a large number of ENR+DMSO or ENR+CD+DMSO (vehicle) control wells (n=100 for ATP, and n=25 for LYZ.NS and LYZ.S) for robust normalization. ATP, non-stimulated lysozyme activity and CCh-stimulated lysozyme activity was again measured and the collected data was again processed in a custom R-script, per primary screen with slight modification. Values were log10 transformed, and a plate-wise FC was calculated for each well based on the median value of ENR+CD+DMSO (vehicle) control wells to normalize plate to plate variability.
# [4] = system: ISC-enriched organoids; experiment: Secondary (validation) screen, 384-well 2.5-D, ENR+CD 6 days, n=8 wells, vs ENR+CD+DMSO control: ATP (CTG); assay type: cell-based, murine; design: key to Dose.FC.CTG: log10 fold change vs median of vehicle control wells
# Procedure: as §2, §1, §3
# [5] = system: ISC-enriched organoids; experiment: Primary screen, 384-well 2.5-D organoid differentiation (ENR+CD, 6 days): carbachol-induced lysozyme secretion (LYZ.S); assay type: cell-based, murine; conditions: primary screen, FC vs plate median
# Source text: as §1
# [6] = system: ISC-enriched organoids; experiment: Secondary (validation) screen, 384-well 2.5-D, ENR+CD 6 days, n=8 wells, vs ENR+CD+DMSO control: carbachol-induced lysozyme secretion (LYZ.S); assay type: cell-based, murine
# Procedure: as §2, §1, §3
compound,measurement,setting,value
CCc1cncnc1N1CCN(Cc2nc3ccc(C(F)(F)F)cc3[nH]2)CC1 [PF-4708671],Dose.FC.CTG,[1]; Dose 0.08 uM,0.261 log 2 fold change
same,Z.CTG,[1]; Dose 0.08 uM,0.623
same,Dose.FC.CTG,[1]; Dose 0.40 uM,0.268 log 2 fold change
same,Z.CTG,[1]; Dose 0.40 uM,0.640
same,Dose.FC.CTG,[1]; Dose 2.00 uM,0.302 log 2 fold change
same,Z.CTG,[1]; Dose 2.00 uM,0.721
same,Dose.FC.CTG,[1]; Dose 10.00 uM,−0.321 log 2 fold change
same,Z.CTG,[1]; Dose 10.00 uM,−0.766
same,Dose.FC.LYZ.NS,[2]; Dose 0.08 uM,0.075 log 2 fold change
same,Z.LYZ.NS,[2]; Dose 0.08 uM,0.654
same,Dose.FC.LYZ.NS,[2]; Dose 0.40 uM,0.122 log 2 fold change
same,Z.LYZ.NS,[2]; Dose 0.40 uM,1.059
same,Dose.FC.LYZ.NS,[2]; Dose 2.00 uM,0.198 log 2 fold change
same,Z.LYZ.NS,[2]; Dose 2.00 uM,1.721
same,Dose.FC.LYZ.NS,[2]; Dose 10.00 uM,0.034 log 2 fold change
same,Z.LYZ.NS,[2]; Dose 10.00 uM,0.297
same,Dose.FC.LYZ.NS,[3]; Dose 0.50 uM,0.005
same,Z.LYZ.NS,[3]; Dose 0.50 uM,0.039
same,repSSMD.LYZ.NS,[3]; Dose 0.50 uM,0.058
same,Dose.FC.LYZ.NS,[3]; Dose 1.00 uM,−0.200
same,Z.LYZ.NS,[3]; Dose 1.00 uM,−1.600
same,repSSMD.LYZ.NS,[3]; Dose 1.00 uM,−1.909
same,Dose.FC.LYZ.NS,[3]; Dose 4.00 uM,0.015
same,Z.LYZ.NS,[3]; Dose 4.00 uM,0.120
same,repSSMD.LYZ.NS,[3]; Dose 4.00 uM,0.171
same,Dose.FC.LYZ.NS,[3]; dose 2.00 uM,−0.221
same,Z.LYZ.NS,[3]; dose 2.00 uM,−1.764
same,repSSMD.LYZ.NS,[3]; dose 2.00 uM,−2.529
same,Dose.FC.CTG,[4]; Dose 0.50 uM,−0.049
same,Z.CTG,[4]; Dose 0.50 uM,−0.443
same,repSSMD.CTG,[4]; Dose 0.50 uM,−0.324
same,Dose.FC.CTG,[4]; Dose 1.00 uM,−0.039
same,Z.CTG,[4]; Dose 1.00 uM,−0.354
same,repSSMD.CTG,[4]; Dose 1.00 uM,−0.284
same,Dose.FC.CTG,[4]; Dose 4.00 uM,0.067
same,Z.CTG,[4]; Dose 4.00 uM,0.601
same,repSSMD.CTG,[4]; Dose 4.00 uM,0.414
same,Dose.FC.CTG,[4]; dose 2.00 uM,−0.076
same,Z.CTG,[4]; dose 2.00 uM,−0.684
same,repSSMD.CTG,[4]; dose 2.00 uM,−0.558
same,Dose.FC.LYZ.S,[5]; Dose 0.08 uM,0.136 log 2 fold change
same,Dose.FC.LYZ.S,[5]; Dose 0.40 uM,0.172 log 2 fold change
same,Dose.FC.LYZ.S,[5]; Dose 2.00 uM,0.209 log 2 fold change
same,Dose.FC.LYZ.S,[5]; Dose 10.00 uM,−0.024 log 2 fold change
same,Z.LYZ.S,[6]; Dose 0.50 uM,−0.305
same,log10 fold change in stimulated lysozyme secretion vs vehicle control,[6]; Dose 0.50 uM,−0.040
same,repSSMD.LYZ.S,[6]; Dose 0.50 uM,−0.496
same,Z.LYZ.S,[6]; Dose 1.00 uM,−1.879
same,log10 fold change in stimulated lysozyme secretion vs vehicle control,[6]; Dose 1.00 uM,−0.245
same,repSSMD.LYZ.S,[6]; Dose 1.00 uM,−2.451
same,Z.LYZ.S,[6]; Dose 4.00 uM,−0.320
same,log10 fold change in stimulated lysozyme secretion vs vehicle control,[6]; Dose 4.00 uM,−0.042
same,repSSMD.LYZ.S,[6]; Dose 4.00 uM,−0.503
same,Z.LYZ.S,[6]; dose 2.00 uM,−2.088
same,log10 fold change in stimulated lysozyme secretion vs vehicle control,[6]; dose 2.00 uM,−0.272
same,repSSMD.LYZ.S,[6]; dose 2.00 uM,−3.604
